Results reported in patent US7273866B2, “2-aryl thiazole derivatives as KCNQ modulators” (Bristol-Myers Squibb Company, priority 2002, dated 2007).

System: KCNQ channels
Assay: Thallium flux assay for KCNQ channel openers
Type: cell-based
Details: HEK-293 cells stably transfected with a KCNQ family member; for Min. conc. response: minimal active concentration: lowest concentration giving signal amplitude >= four standard deviations of negative controls; for EC50: thallium flux, 10 point concentration series
Protocol: Thallium Flux Assay for KCNQ channel Openers. The thallium assay is a modification of that published by Weaver and is referenced in its entirety (Weaver, C. D. WO 02/31508, 2002).
Approximately 20,000 cells/well of an HEK-293 cell line stably transfected with one of the members of the KCNQ family were plated into clear-bottom, black-walled, poly-D-lysine coated, 384 well assay plates in 20 μl/well of low chloride plating medium. Low chloride plating medium was composed of the following: sodium gluconate, 109 mM; potassium gluconate, 5.4 mM; hemi-calcium gluconate, 3.6 mM; magnesium sulfate, 0.8 mM; sodium bicarbonate, 26.2 mM; sodium phosphate monobasic, 1.2 mM; glutamine, 2 mM; glucose, 5 mM; 4-(2-hydroxyethyl)-1-piperazineethanesulfonic acid (HEPES) (pH 7.3) 10 mM, MEM vitamin solution (10× concentration of vitamins, Gibco/LifeTechnologies 11120-052) and MEM amino acid solution (1× concentration of amino acids, Gibco/LifeTechnologies 11130-051).
Following overnight incubation in a 5% CO2 incubator at 37° C., the cells in the plates were loaded with 20 μl/well of a dye loading solution containing the commercially available thallium-sensitive fluorescent dye BTC-AM, the acetomethoxy ester of BTC (see U.S. Pat. No. 5,501,980) (2 μM) and pluronic acid F-127 (Molecular Probes P 6867) (0.02% w/v) in chloride free assay buffer. Chloride free assay buffer was composed of the following: sodium gluconate, 140 mM; potassium gluconate, 2.5 mM; hemi-calcium gluconate, 6 mM; hemi-magnesium gluconate, 2 mM; glucose, 5 mM; HEPES (pH 7.3), 10 mM.
Following incubation in the dye loading solution for from 45-90 min at room temperature, the dye loading solution was removed by aspiration and replaced with 40 μl/well of chloride free assay buffer.
Prior to addition to cell plates, test compound and standard compounds were dissolved in DMSO to 3 mM concentration. Compounds were then diluted from the 3 mM stock to 100-fold over the final assay concentration in DMSO. Finally, compounds in DMSO were diluted from 100-fold over the final assay concentration to 5-fold over the final assay concentration in chloride free assay buffer.
Ten μl/well of compounds at 5-fold over the final assay concentration were then added to the cell plates. This represents a 1:5 dilution, yielding the final test concentration. The wells used for test compounds were A1-P20. Wells A21-P22 contained a standard opener and a maximally efficacious concentration (positive control). Wells A23-P24 contained chloride free assay buffer containing 1% DMSO (negative control).
Following addition of test compounds, the plates were loaded onto the Molecular Devices FLIPR. The 488 nm line of the argon laser was used to excite the BTC and the emission filter was a 540(+/−30) nm. Images were collected at 1 Hz. Ten seconds of baseline were collected and then the FLIPR was used to add 13 μl/well of a stimulus buffer composed of 7.5 mM Tl2SO4 in chloride free assay buffer. Images were collected for an additional 60 seconds.
For data analysis, the amplitude of the average of the negative controls was subtracted from all wells. The amplitudes of the test compounds were then compared to the value of four standard deviations of the negative control wells. The lowest concentration of a test compound sufficient to generate a signal amplitude greater than or equal to four standard deviations from the amplitude of the negative controls was defined as the minimal active concentration.
For generating EC50 values, compounds were serially diluted in 1:3 volume increments to produce a 10 point concentration series. EC50 values were calculated by fitting the resulting amplitudes to a single-site logistic equation. EC50 was defined as the concentration of test compound required to yield 50% of the maximal response. Maximal response (Maximal opening) was the largest signal amplitude divided by the negative control amplitude generated by any concentration of a test compound. […]

Row | SMILES | EC50 [nM] | Min. conc. response [µM]
1 | COc1cccc([C@H](C)NC(=O)c2sc(-c3cccc(N4CCOCC4)c3)nc2C(F)(F)F)c1 (stereo in doubt) [Example 99] | – | 3
2 | COc1ccccc1-c1nc(C(F)(F)F)c(C(=O)N[C@@H](C)c2cccc(N3CCOCC3)c2)s1 [Example 23, 2-(2-methoxyphenyl)-4-(trifluoromethyl)-N-[1-[3-(1-morpholinyl)phenyl]ethyl]-5-thiazolecarboxamide] | 50 to 1000 | 3
3 | COc1ccccc1-c1nc(C(F)(F)F)c(C(=O)NCc2cccc(F)c2)s1 [Example 27, 2-(2-methoxyphenyl)-4-(trifluoromethyl)-N-(3-fluorophenyl)methyl-5-thiazolecarboxamide] | 1000 to 20000 | 3
4 | COc1ccc(-c2nc(C(F)(F)F)c(C(=O)N[C@@H](C)c3cccc(N4CCOCC4)c3)s2)c(OC)c1 [Example 31, 2-(2,4-dimethoxyphenyl)-4-(trifluoromethyl)-N-[1-[3-(4-morpholinyl)phenyl]ethyl]-5-thiazolecarboxamide] | 1000 to 20000 | 3
5 | COc1ccccc1-c1nc(C(F)(F)F)c(C(=O)NC(C)c2cccc(N3CCCCC3)c2)s1 (centres unmarked) [Example 32, 2-(2-methoxyphenyl)-4-(trifluoromethyl)-N-[1-[3-(1-piperidinyl)phenyl]ethyl]-5-thiazolecarboxamide] | < 50 | 0.3
6 | COc1ccccc1-c1nc(C(F)(F)F)c(C(=O)NC(C)c2cccc(N3CCCC3)c2)s1 (centres unmarked) [Example 33, 2-(2-methoxyphenyl)-4-(trifluoromethyl)-N-[1-[3-(1-pyrrolidinyl)phenyl]ethyl]-5-thiazolecarboxamide] | 50 to 1000 | 3
7 | COc1ccccc1-c1nc(C(F)(F)F)c(C(=O)NC(C)c2cccc(N(C)Cc3ccco3)c2)s1 (centres unmarked) [Example 34, 2-(2-methoxyphenyl)-4-(trifluoromethyl)-N-[1-[3-[(2-furanylmethyl)methylamino]phenyl]ethyl]-5-thiazolecarboxamide] | < 50 | 0.3
8 | CC(NC(=O)c1sc(-c2ccccc2F)nc1C(F)(F)F)c1cccc(N(C)Cc2ccco2)c1 (centres unmarked) [Example 35, 2-(2-fluorophenyl)-4-(trifluoromethyl)-N-[1-[3-[(2-furanylmethyl)methylamino]phenyl]ethyl]-5-thiazolecarboxamide] | 50 to 1000 | 0.3
9 | COc1ccc(-c2nc(C(F)(F)F)c(C(=O)NC(C)c3cccc(CN4CCCC4)c3)s2)cc1OC (centres unmarked) [Example 36, 2-(3,4-dimethoxyphenyl)-4-(trifluoromethyl)-N-[1-[3-[(1-pyrrolidinyl)methyl]phenyl]ethyl]-5-thiazolecarboxamide] | 1000 to 20000 | 10
10 | CC(NC(=O)c1sc(-c2ccccc2F)nc1C(F)(F)F)c1cccc(CN2CCOCC2)c1 (centres unmarked) [Example 37, 2-(2-fluorophenyl)-4-(trifluoromethyl)-N-[1-[3-[(4-morpholinyl)methyl]phenyl]ethyl]-5-thiazolecarboxamide] | 1000 to 20000 | 3
11 | CCN(CC)Cc1cccc(C(C)NC(=O)c2sc(-c3cccc4ccccc34)nc2C(F)(F)F)c1 (centres unmarked) [Example 38, 2-(1-naphthyl)-4-(trifluoromethyl)-N-[1-[3-[(diethylamino)methyl]phenyl]ethyl]-5-thiazolecarboxamide] | 1000 to 20000 | 30
12 | COc1ccccc1-c1nc(C(F)(F)F)c(C(=O)NC(C)c2cccc(NC(=N)N)c2)s1 (centres unmarked) [Example 40, 2-(2-methoxyphenyl)-4-(trifluoromethyl)-N-[1-[3-(guanidinyl)phenyl]ethyl]-5-thiazolecarboxamide] | 1000 to 20000 | 30

More lines, main results first:

Row | EC50 [nM] | SMILES | Min. conc. response [µM]
13 | 50 to 1000 | COc1cccc(-c2nc(C(F)(F)F)c(C(=O)N[C@@H](C)c3cccc(OC(F)(F)F)c3)s2)c1 (stereo in doubt) [Example 24, 2-(3-methoxyphenyl)-4-(trifluoromethyl)-N-[1-[3-(trifluoromethoxy)phenyl]ethyl]-5-thiazolecarboxamide] | 3
14 | < 50 | CC(NC(=O)c1sc(-c2ccc(F)cc2)nc1C(F)(F)F)c1cccc(OC(F)(F)F)c1 (centres unmarked) [Example 17, 2-(4-fluorophenyl)-4-(trifluoromethyl)-N-[1-[3-(trifluoromethoxy)phenyl]ethyl]-5-thiazolecarboxamide] | 0.3
15 | < 50 | COc1ccccc1-c1nc(C(F)(F)F)c(C(=O)NC(C)c2cccc(OC(F)(F)F)c2)s1 (centres unmarked) [Example 18, 2-(2-methoxyphenyl)-4-(trifluoromethyl)-N-[1-[3-(trifluoromethoxy)phenyl]ethyl]-5-thiazolecarboxamide] | 0.3
16 | < 50 | COc1ccccc1-c1nc(C(F)(F)F)c(C(=O)NC(C)c2cccc(C(F)(F)F)c2)s1 (centres unmarked) [Example 19, 2-(2-methoxyphenyl)-4-(trifluoromethyl)-N-[1-[3-(trifluoromethyl)phenyl]ethyl]-5-thiazolecarboxamide] | 3
17 | 1000 to 20000 | CC(NC(=O)c1sc(-c2ccc3c(c2)OCO3)nc1C(F)(F)F)c1cccc(OC(F)(F)F)c1 (centres unmarked) [Example 20, 2-(3,4-dioxolanylphenyl)-4-(trifluoromethyl)-N-[1-[3-(trifluoromethoxy)phenyl]ethyl]-5-thiazolecarboxamide] | 0.3
18 | < 50 | CC(NC(=O)c1sc(-c2ccccc2F)nc1C(F)(F)F)c1cccc(C(F)(F)F)c1 (centres unmarked) [Example 22, 2-(2-fluorophenyl)-4-(trifluoromethyl)-N-[1-[3-(trifluoromethyl)phenyl]ethyl]-5-thiazolecarboxamide] | 0.3
19 | 1000 to 20000 | COc1ccccc1-c1nc(C(F)(F)F)c(C(=O)NC(C)c2cccc(N(C)C)c2)s1 (centres unmarked) [Example 25, 2-(2-methoxyphenyl)-4-(trifluoromethyl)-N-[1-[3-(dimethylamino)phenyl]ethyl]-5-thiazolecarboxamide] | 3
20 | 50 to 1000 | CC(NC(=O)c1sc(-c2ccccc2F)nc1C(F)(F)F)c1cccc(N(C)C)c1 (centres unmarked) [Example 26, 2-(2-fluorophenyl)-4-(trifluoromethyl)-N-[1-[3-(dimethylamino)phenyl]ethyl]-5-thiazolecarboxamide] | 3
21 | 1000 to 20000 | COc1ccc(-c2nc(C(F)(F)F)c(C(=O)NC(C)c3cccc(OC(F)(F)F)c3)s2)cc1 (centres unmarked) [Example 28, 2-(4-methoxyphenyl)-4-(trifluoromethyl)-N-[1-[3-(trifluoromethoxy)phenyl]ethyl]-5-thiazolecarboxamide] | 10
22 | 50 to 1000 | COc1ccc(-c2nc(C(F)(F)F)c(C(=O)NC(C)c3cccc(OC(F)(F)F)c3)s2)cc1OC (centres unmarked) [Example 29, 2-(3,4-dimethoxyphenyl)-4-(trifluoromethyl)-N-[1-[3-(trifluoromethoxy)phenyl]ethyl]-5-thiazolecarboxamide] | 3
23 | 50 to 1000 | COc1ccc(-c2nc(C(F)(F)F)c(C(=O)NC(C)c3cccc(OC(F)(F)F)c3)s2)c(OC)c1 (centres unmarked) [Example 30, 2-(2,4-dimethoxyphenyl)-4-(trifluoromethyl)-N-[1-[3-(trifluoromethoxy)phenyl]ethyl]-5-thiazolecarboxamide] | 3
24 | 1000 to 20000 | COc1ccccc1-c1nc(C(F)(F)F)c(C(=O)NC(C)c2cccc(N)c2)s1 (centres unmarked) [Example 39, 2-(2-methoxyphenyl)-4-(trifluoromethyl)-N-[1-(3-aminophenyl)ethyl]-5-thiazolecarboxamide] | 10
